Measurements as given in patent US7973053B2, “Nerve cell death inhibitor” (priority 2007, dated 2011).
Where a name gives a salt, the structure may show the parent alone.

Columns and labels:
[1] = test system: nerve cells in the hippocampus CA1 region; assay: rat model for revascularization of vertebral-carotid artery occlusion (4-point ischemia), nerve cell death in hippocampus CA1; type: in vivo; conditions: oral once a day for 6 days
Method: Seven-week old Crlj:WI male rats (Charles River Laboratories Japan Inc.) were obtained, and they were provided to the experiment after being subjected to quarantine (for 5 days) and acclimatization (for 7 days or more). Throughout the experimentation period, the rats were bred in a breeding chamber maintained under a light-dark cycle (light period under room light: 6:00 AM to 6:00 PM), at a temperature of 23±3° C. and a humidity of 55±15%, and were allowed to freely take in solid feedstuff (CRF-1; Oriental Yeast Co., Ltd.) and drinking water (tap water).
Pitavastatin and ARICEPT were each suspended in a 0.5% (w/v) aqueous solution of carboxymethylcellulose sodium (hereinafter, CMC-Na, SIGMA), and prepared just before use such that the amount of administration would be 5 mL/kg.
The day of grouping was counted as the first day of administration, and the test drug was orally administered once a day for 6 days, thus 6 times in total. The normal group and the solvent control group were administered with a 0.5% (w/v) aqueous solution of CMC-Na.
On the fifth day of administration, 35 mg/kg of pentobarbital sodium (Nembutal (registered trademark) injectable solution, Dainippon Pharmaceutical Co., Ltd.) was intraperitoneally administered to the rats excluding those in the normal group. The right and left alar foramens were exposed from the first cervical spine part under anesthesia, and the vertebral arteries were thermally solidified using a soldering iron, so as to permanently occlude the vertebral arteries on both sides. […]
The fixated brains were dehydrated, infiltrated and embedded in paraffin, and a section having a thickness 10 μm was produced from the vicinity of Bregma −3.3 mm. […] The number of nerve cells was counted using an image analyzer (Win ROOF V5.6, Mitani Corporation), and the length of CA1 was measured.
According to the following formula, the number of nerve cells per unit length was determined, and the average value and standard deviation were calculated for each group. […]

[2] = test system: nerve cells; conditions: pitavastatin 3 mg/kg single administration; Non-Patent Document 9; cited from earlier work

Compound | number of nerve cells in the hippocampus CA1 region (cells/mm) vs solvent control group ([1]; Comparative Example 1, ARICEPT 0.5 mg/kg single administration, FIG. 2) | number of nerve cells in the hippocampus CA1 region (cells/mm) vs solvent control group ([1]; Example 1, ARICEPT 0.5 mg/kg single administration, FIG. 1) | increase in the number of nerve cells, as reported in the literature [2] | number of nerve cells in the hippocampus CA1 region (cells/mm) vs solvent control group ([1]; Example 1, pitavastatin 3 mg/kg single administration, FIG. 1)
COc1cc2c(cc1OC)C(=O)C(CC1CCN(Cc3ccccc3)CC1)C2 (stereo not shown) [ARICEPT, donepezil hydrochloride] | not significant | not significant | – | –
O=C([O-])C[C@H](O)C[C@H](O)/C=C/c1c(C2CC2)nc2ccccc2c1-c1ccc(F)cc1.O=C([O-])C[C@H](O)C[C@H](O)/C=C/c1c(C2CC2)nc2ccccc2c1-c1ccc(F)cc1.[Ca+2] [pitavastatin, pitavastatin calcium] | – | – | presence of significant difference | not significant
